The source of these data is patent US9771395B2, “Enhanced influenza hemagglutinin binders” (UNIVERSITY OF WASHINGTON, priority 2014, dated 2017).

For data set [1], the system named is human (H1N1) and avian (H5N1) influenza viruses. Nature of the data set: microbe, parasite or virus in culture. The class given is cell-based, Influenza virus. The note with it: Influenza A virus, MDCK, read-out: EC50 range.
For data set [2], the system named is CA09 virus. The experiment in a line: Post-exposure (therapeutic) administration after CA09 challenge in BALB/c mice. Format: in vivo. How it is done:
All animal experiments used in this study were approved by the University of Washington Institutional Animal Care and Use Committee. […] […] In a therapeutic setting, mice received the protein binder 0 (2 hours post-infection), 1, 2, 3, or 4 days post infection. The mice were monitored daily for weight loss and survival until 14 days post-infection. Animals that lost more than 30% of their initial body weight were euthanized in accordance with our animal protocol. The SCID (NOD SCID gamma, strain NOD.Cg-Prkdcscid Il2rgtm1Wjl/SzJ) mice and the MyD88−/−(strain B6.129P2(SJL)-Myd88tm1.1Defr/J) mice were purchased from Jackson Laboratory.

For data set [3], the system named is CA09 virus. Nature of the data set: Pre-exposure administration and CA09 challenge in SCID mice. Conditions: 6.0 mg/kg IN 2 hrs before CA09. Format: in vivo, NOD SCID gamma (SCID) mice. The procedure:
(§1) All animal experiments used in this study were approved by the University of Washington Institutional Animal Care and Use Committee. […] Two to forty-eight hours later, the mice were anesthetized by isoflurane and challenged intranasally with 10 MLD50 (fifty percent mouse lethal dose) of either A/California/07/09 (H1N1) (CA09) or A/PR/8/34 (H1N1) (PR8). In a therapeutic setting, mice received the protein binder 0 (2 hours post-infection), 1, 2, 3, or 4 days post infection. The mice were monitored daily for weight loss and survival until 14 days post-infection. Animals that lost more than 30% of their initial body weight were euthanized in accordance with our animal protocol. The SCID (NOD SCID gamma, strain NOD.Cg-Prkdcscid Il2rgtm1Wjl/SzJ) mice and the MyD88−/−(strain B6.129P2(SJL)-Myd88tm1.1Defr/J) mice were purchased from Jackson Laboratory.

Data set [4] relates to H1N1 A/California/07/2009 (CA09) virus. Nature of the data set: Pre-exposure administration and lethal influenza challenge in BALB/c mice. Format: in vivo. Conditions: 6.0 mg/kg, 48 or 2 hrs before CA09 challenge. The procedure: as §1
Data set [5] has as its system CA09 virus. The experiment in a line: Pre-exposure administration and CA09 challenge in MyD88-/- mice. The class given is in vivo. The note with it: 6.0 mg/kg IN 2 hrs before CA09. The procedure: as §1
Data set [6] deals with Group I Hemagglutinin (HA) subtypes. Format: binding, Influenza virus.
Data set [7] is described as follows: Bio-Plex inflammatory cytokines in lung homogenates after protein administration (no infection). Format: in vivo, BALB/c mice. Conditions: single IN dose 6.0 mg/kg. The procedure:
The concentrations of cytokines in lung tissue were measured. […] Lungs were thawed, weighed and lysed using the Bio-Plex® Cell Lysis Kit (Bio-Rad, Hercules, Calif.). The levels of interleukin (IL)-6, IL-10. IL-12(p70), interferon (IFN)-γ, and tumor necrosis factor (TNF)-α in the lysate were measured using a Bio-Plex) multiplex bead array kit (Bio-Rad, Hercules, Calif.). The Bio-Plex® assay was performed in accordance with the manufacturer's instructions.

Converted amounts (≈) assume the structure as drawn.

The term EC50 denotes the concentration giving half of the maximal effect. For the molecule `NC(=O)c1ncn([C@@H]2O[C@H](CO)[C@@H](O)[C@H]2O)n1` [Ribavirin, 1- -D-ribofuranosyl-1,2,4-triazole-3-carboxamide, reference compound], the EC50 in data set [1] lay in the range of 15 to 18 µg/mL (≈ 61.4 to 73.7 µM).
Molecule `CCOC(=O)C1=C[C@@H](OC(CC)CC)[C@H](NC(C)=O)[C@@H](N)C1` [oseltamivir, reference compound] returned a survival in the data set on CA09 virus [2] (5 mg/kg/day by oral gavage, twice daily for 5 days starting day +1 p.i., 3 MLD50 CA09) of 0%. For the same molecule, the “delay of time to death compared to controls” value in the data set with CA09 virus [2] (5 mg/kg/day by oral gavage, twice daily for 5 days starting day +1 p.i., p<0.001) is on record as “about 2.5 days”.
Take lysozyme [reference compound]: in the data set on CA09 virus [3], the “survival (protected mice)” value is reported as 0% and the weight loss result is listed as “significant weight loss”. In addition, the protection entry in data set [4] was “no protection”. In the data set with CA09 virus [5], the “survival (protected mice)” value is listed as 0% and the weight loss entry was “significant weight loss”.

B1: HB36.5: stable, broadly cross-reactive HA binding protein (SEQ ID NO: 4), parent of HB36.6 (protein)
chain: SNAMDGQQLNRLLLEWIGAWDPFGLGKDAYDYEAAEVLKAVYETESAFDLAMRIHWIYNFAFKRQIPFAHAQKLARRLLELKQAASSPLP
modifications: (1)..(5) optionally absent; (86)..(90) optionally absent
As for B1, the “cross-reactivity against Group I HA subtypes” value in data set [6] is on record as “broadly cross-reactive”.

B2: 1u84: scaffold protein (PDB ID 1u84) that HB36.6 is modeled on; non-protective control (protein)
chain: SNAMDGQQLNRLLLEWIGAWDPFGLGKDAYDVEAASVLQAVYETEDARTLAARIQSIYEFAFDEPIPFPHCLKLARRLLELKQAASCPLP
In the case of B2, in the data set on CA09 virus [3], the “survival (protected mice)” value worked out at 0% and the weight loss result is given as “significant weight loss”. For the same molecule, the “cytokine levels by 48 hrs” value in data set [7] was “dropped to pre-administration levels”. Also, the protection result in the data set on CA09 virus [2] (daily administration after CA09 challenge) is “no protection”. In addition, in the data set on CA09 virus [5], the “survival (protected mice)” value stood at 0% and the weight loss result is “significant weight loss”.
